Here are results for 1 substance from US20180369230A1, “TARGETED SELECTION OF PATIENTS FOR TREATMENT WITH SPECIFIC CORTISTATIN DERIVATIVES” (President and Fellows of Harvard College, priority 2015, published 2018).

The test system of one assay is SET-2 cells. The experiment in a line: SET-2 differentiation assay. Type of assay: cell-based. The note with it: 50 nM, 3 days, flow cytometry. On the procedure:
For the SET-2 differentiation assay, cells were plated (6-well) in triplicate at 150,000 cells per ml for 3-days with 50 nM CA, 50 ng ml^−1 PMA (positive control), or vehicle. Cell pellets were collected at 4° C., washed three times with cold PBS, and stained with anti-CD61-PE (ab91128) or anti-CD41-PerCP (ab134373) and analyzed by flow cytometry. For each experiment, n=3 biological replicates with two independent experiments and one shown (FIG. 3).
A general note: A flow cytometer gives signals particle by particle.

A further assay relates to RUNX1 target genes. The experiment in a line: Determination of gene expression levels. The format is cell-based, human. The note with it: SET-2, MOLM-14 and MV4;11. The protocol:
Leukemia cells were plated (12-well) in triplicate at 500,000-800,000 cells per ml and incubated in the presence of vehicle (0.1% DMSO) or CA (25 nM 3 h for K562, MOLM-14 and MV4;11; 10 nM 24 h for MOLM-14; 25 nM 4 h for SET-2, n=3 for each cell line). Cells were then washed twice with cold PBS, and snap frozen. RNA was isolated (RNeasy Plus Microkit, Qiagen or TRIzol, Life Technologies), processed, and, for K562, MOLM-14 and MV4;11, hybridized to the Human U133 Plus 2.0 microarray (Affymetrix). Microarrays were processed with Bioconductor packages affyQCReport for quality control and affy for background correction, summarization, and normalization using rma. […] SET-2 and HCT 116 gene expression was measured by RNA-seq. […] Reads were aligned in two passes, first with rnaStar (v.2.3.0e) then with BWA (v.0.7.5a) for remaining unmapped reads, both using default parameters. Mapped reads were merged and counted using HTSeq (v.0.5.3p3) with -s yes -m intersection-strict. […] Samples were run in a single lane on an Illumina HiSEQ 2000 sequencer with a single read flow cell using 1×50-bp reads and a 6-cycle index read. Reads were mapped to the hg19 reference genome using Tophat2 v.2.0.6 with custom settings including the setting of -library-type fr- firstrand to appropriately account for the stranded nature of the protocol. […]

Assay [1] has as its system ruxolitnib persistence cells. Description: Growth inhibition in ruxolitinib persistent cells. The note with it: FIG. 5 legend; read-out: G150 in ruxolitnib persistence cells. The format is cell-based.

On to Cortistatin A, for which, in the assay with SET-2 cells, the “differentiation, megakaryocytic markers CD41 and CD61” value was “induces differentiation”. Besides, the “expression of RUNX1 target genes including CEBPA, IRF8 and NFE2” value with RUNX1 target genes is “upregulated”. Further, in assay [1], the IC50 was in the range of 2 to 10 nM.
